Reference: patent US10336732B2, “1-heterocyclyl isochromanyl compounds and analogs for treating CNS disorders” (Sunovion Pharmaceuticals Inc., priority 2015, dated 2019)

Test system: mice
Experiment: Neuropharmacological assay (SmartCube), behavioral signature of compound-treated mice
Assay type: in vivo
Settings: i.p. 15 min before behavioral test, most efficacious dose(s) of 3 doses
From the text: Neurosci. […] As reported in Roberds, because psychiatric diseases generally result from disorders of cell-cell communication or circuitry, intact systems are useful in detecting improvement in disease-relevant endpoints. These endpoints are typically behavioral in nature, often requiring human observation and interpretation. To facilitate testing of multiple compounds for behavioral effects relevant to psychiatric disease, PsychoGenics, Inc. (Tarrytown, N.Y., “PGI”) developed SmartCube™, an automated system in which behaviors of compound-treated mice are captured by digital video and analyzed with computer algorithms. […] PGI Analytical Systems uses data from SmartCube™ to compare the behavioral signature of a test compound to a database of behavioral signatures obtained using a large set of diverse reference compounds. (The composition of the database as well as validation of the method is further described in Roberds). In this way, the neuropharmacological effects of a test compound can be predicted by similarity to major classes of compounds, such as antipsychotics, anxiolytics and antidepressants.
The SmartCube™ system produces an activity signature indicating the probability that the activity of the test compound at the administered dose matches a given class of neuropharmacological agents. (See, e.g., Roberds, FIGS. 2 and 3). The test compound is simultaneously compared against multiple classes of agents; thus, a separate probability is generated for each behavioral effect measured (e.g., anxiolytic activity, analgesic activity, etc.). In Table 4, these probabilities are reported for each behavioral effect measured as follows:
Provided compounds were dissolved in a mixture of Pharmasolve™ (N-methyl-2-pyrrolidone), polyethylene glycol and propylene glycol, and were injected i.p. 15 min. before the behavioral test. For each compound, injections were administered at 3 different doses. For each behavioral effect measured, results for the most efficacious dose(s) are presented.

| Structure (SMILES) | AD: ADHD (probability that behavioral signature matches class) | AG: analgesic (probability that behavioral signature matches class) | AX: anxiolytic (probability that behavioral signature matches class) | CE: cognitive enhancer (probability that behavioral signature matches class) | DP: anti-depressant (probability that behavioral signature matches class) | HA: hallucinogen (probability that behavioral signature matches class) | MS: mood stabilizer (probability that behavioral signature matches class) | PS: anti-psychotic (probability that behavioral signature matches class) | SD: sedative hypnotic (probability that behavioral signature matches class) | UN: uncharacterized CNS activity (probability that behavioral signature matches class) | XG: anxiogenic (probability that behavioral signature matches class) |
| --- | --- | --- | --- | --- | --- | --- | --- | --- | --- | --- | --- |
| c1ccc2c(c1)CCO[C@H]2[C@@H]1CCCN1 [Compound I-18, (S)-2-((R)-isochroman-1-yl)pyrrolidine] | + (LOQ ≤ + <5%) | ++ (5% ≤ ++ <25%) | +++ (25% ≤ +++ <50%) | ++ (5% ≤ ++ <25%) | ++ (5% ≤ ++ <25%) | + (LOQ ≤ + <5%) | ++ (5% ≤ ++ <25%) | +++ (25% ≤ +++ <50%) | ++ (5% ≤ ++ <25%) | ++ (5% ≤ ++ <25%) | + (LOQ ≤ + <5%) |
| Fc1ccc2c(c1)CCCO[C@H]2[C@@H]1CCCN1 [Compound I-111, (S)-2-((R)-7-fluoro-1,3,4,5-tetrahydrobenzo[c]oxepin-1-yl)pyrrolidine] | + (LOQ ≤ + <5%) | ++ (5% ≤ ++ <25%) | ++ (5% ≤ ++ <25%) | ++ (5% ≤ ++ <25%) | ++ (5% ≤ ++ <25%) | + (LOQ ≤ + <5%) | + (LOQ ≤ + <5%) | ++++ (50% ≤ ++++) | ++ (5% ≤ ++ <25%) | +++ (25% ≤ +++ <50%) | + (LOQ ≤ + <5%) |
| Clc1ccc2c(c1)CCO[C@H]2[C@H]1CCCN1 [Compound I-35, (R)-2-((R)-6-chloroisochroman-1-yl)pyrrolidine] | + (LOQ ≤ + <5%) | + (LOQ ≤ + <5%) | ++ (5% ≤ ++ <25%) | ++ (5% ≤ ++ <25%) | ++ (5% ≤ ++ <25%) | + (LOQ ≤ + <5%) | + (LOQ ≤ + <5%) | +++ (25% ≤ +++ <50%) | ++ (5% ≤ ++ <25%) | ++ (5% ≤ ++ <25%) | + (LOQ ≤ + <5%) |
| c1ccc2c(c1)CCCO[C@H]2[C@H]1CCCN1 [Compound I-100, (R)-2-((R)-1,3,4,5-tetrahydrobenzo[c]oxepin-1-yl)pyrrolidine] | + (LOQ ≤ + <5%) | ++ (5% ≤ ++ <25%) | ++ (5% ≤ ++ <25%) | +++ (25% ≤ +++ <50%) | ++ (5% ≤ ++ <25%) | + (LOQ ≤ + <5%) | ++ (5% ≤ ++ <25%) | +++ (25% ≤ +++ <50%) | ++ (5% ≤ ++ <25%) | + (LOQ ≤ + <5%) | + (LOQ ≤ + <5%) |
| FC1(F)CN[C@H]([C@@H]2OCCc3ccccc32)C1 [Compound I-64, (S)-4,4-difluoro-2-((R)-isochroman-1-yl)pyrrolidine] | + (LOQ ≤ + <5%) | + (LOQ ≤ + <5%) | ++ (5% ≤ ++ <25%) | + (LOQ ≤ + <5%) | + (LOQ ≤ + <5%) | + (LOQ ≤ + <5%) | + (LOQ ≤ + <5%) | + (LOQ ≤ + <5%) | + (LOQ ≤ + <5%) | + (LOQ ≤ + <5%) | + (LOQ ≤ + <5%) |
| c1ccc2c(c1)CCO[C@H]2[C@H]1CCN1 [Compound I-82, (R)-2-((R)-isochroman-1-yl)azetidine] | + (LOQ ≤ + <5%) | ++ (5% ≤ ++ <25%) | ++ (5% ≤ ++ <25%) | ++ (5% ≤ ++ <25%) | +++ (25% ≤ +++ <50%) | + (LOQ ≤ + <5%) | ++ (5% ≤ ++ <25%) | ++ (5% ≤ ++ <25%) | ++ (5% ≤ ++ <25%) | ++ (5% ≤ ++ <25%) | + (LOQ ≤ + <5%) |
| Cc1cccc2c1[C@H]([C@@H]1CCCN1)OCCC2 [Compound I-102, (S)-2-((R)-9-methyl-1,3,4,5-tetrahydrobenzo[c]oxepin-1-yl)pyrrolidine] | + (LOQ ≤ + <5%) | ++ (5% ≤ ++ <25%) | +++ (25% ≤ +++ <50%) | ++ (5% ≤ ++ <25%) | ++ (5% ≤ ++ <25%) | + (LOQ ≤ + <5%) | ++ (5% ≤ ++ <25%) | ++ (5% ≤ ++ <25%) | + (LOQ ≤ + <5%) | + (LOQ ≤ + <5%) | + (LOQ ≤ + <5%) |
| N#Cc1cccc2c1[C@H]([C@@H]1CCCN1)OCC2 [Compound I-38, (R)-1-((S)-pyrrolidin-2-yl)isochroman-8-carbonitrile] | + (LOQ ≤ + <5%) | ++ (5% ≤ ++ <25%) | ++ (5% ≤ ++ <25%) | + (LOQ ≤ + <5%) | ++ (5% ≤ ++ <25%) | + (LOQ ≤ + <5%) | + (LOQ ≤ + <5%) | + (LOQ ≤ + <5%) | + (LOQ ≤ + <5%) | + (LOQ ≤ + <5%) | + (LOQ ≤ + <5%) |
| CC1(C)Cc2ccccc2[C@@H]([C@@H]2CCCN2)O1 [Compound I-65, (S)-2-((S)-3,3-dimethylisochroman-1-yl)pyrrolidine] | + (LOQ ≤ + <5%) | +++ (25% ≤ +++ <50%) | ++ (5% ≤ ++ <25%) | ++ (5% ≤ ++ <25%) | ++ (5% ≤ ++ <25%) | + (LOQ ≤ + <5%) | + (LOQ ≤ + <5%) | ++ (5% ≤ ++ <25%) | ++ (5% ≤ ++ <25%) | + (LOQ ≤ + <5%) | + (LOQ ≤ + <5%) |
| C[C@]1([C@H]2CCCN2)OCc2cc(F)ccc21 [Compound I-125, (R)-2-((S)-5-fluoro-1-methyl-1,3-dihydroisobenzofuran-1-yl)pyrrolidine] | + (LOQ ≤ + <5%) | ++ (5% ≤ ++ <25%) | ++ (5% ≤ ++ <25%) | ++ (5% ≤ ++ <25%) | ++++ (50% ≤ ++++) | + (LOQ ≤ + <5%) | + (LOQ ≤ + <5%) | + (LOQ ≤ + <5%) | ++ (5% ≤ ++ <25%) | + (LOQ ≤ + <5%) | + (LOQ ≤ + <5%) |
